Laboratory results as given in PMC6895048, “4,5-Disubstituted 1,2,3-triazoles: Effective Inhibition of Indoleamine 2,3-Dioxygenase 1 Enzyme Regulates T cell Activity and Mitigates Tumor Growth” (Scientific Reports, 2019).
Where “and” joins values, the source holds several entries; their conditions need not be identical. Identical values can stand only once.

Columns and labels:
[1] = test system: CD8+ T cells; test: T cell activity in breast tumor micro-environment (flow cytometry); assay type: cell-based, human; settings: 50 μM; for regulation of CD8+ T cells in tumor micro-environment: 20% MDA-MB-231 conditioned medium, 48 hours; for regulation of effector memory CD8+ T cells in tumor micro-environment: CCR7lowCD45RAlow phenotype
Description: We designed this study to evaluate the effects of IDO1 inhibition on cytotoxic T cells present in the breast tumor micro-environment. To mimic breast tumor micro-environment, we used 20% conditioned medium of human metastatic breast cancer cell line MDA-MB-231 with fresh RPMI and 10% FBS. Freshly isolated PBL cells were stimulated with PMA and ionomycin prior to culture in 20% conditioned medium and compounds at selected concentrations. Drug treatment was done for 48 hours followed by immunophenotyping by flow cytometry. For cell proliferation experiments freshly isolated PBLs were cultured in RPMI with 10% FBS and inhibitors for 48 hours. After that the cells were counted with hemocytometer. All the experiments were repeated thrice before analyzing data. The concentration of the compounds was 50 μM for all the T cell activity studies. All the T cell culture related experiments were conducted in the designated biosafety level facility available at the University of Calcutta.
Peripheral blood lymphocyte was isolated from freshly isolated blood samples of healthy volunteers in a previously described protocol. Briefly, blood was diluted with equal volume of sterile PBS and allowed in density gradient centrifugation over histopaque. Isolated PBLs were washed and cultured in RPMI medium with 10% FBS. Peripheral blood lymphocytes (PBLs) were isolated from fresh blood of healthy volunteers and cultured in RPMI medium with or without compound at selected concentration for 48 hours. Treatment of the compound uplifted cell proliferation. To evaluate whether 4,5-disubstituted 1,2,3-triazole regulate T cell activity, PBL was isolated and cultured at 20% conditioned medium of human metastatic breast cancer cell line MDA-MB-231. To perform this experiment PBL was isolated from three healthy volunteers and three independent experiments were performed. All the volunteers signed informed consent form[45],[49].
The T cells were activated according to standardized protocol published elsewhere. 100 ng/mL PMA and 1 μg/mL ionomycin were used to stimulate the T cells for 2 hrs. PBLs freshly cultured in RPMI with 10% FBS was added in the culture plate at 2 × 10^5 cells/ well and cultured at 37 °C with 5% CO2 for the duration of activation.
After treatment for given period of time the lymphocytes were analyzed for alteration of protein expression by flow cytometry according to previously published protocols. Briefly the cells were pelleted down resuspended in cell staining buffer. After cell counting cells were stained against PE-CD8 (Miltenyi Bioteh.), PerCP-Cy 5.5-CCR-7 (Miltenyi Bioteh.), APC-CD45RA (Miltenyi Bioteh.), VioBright-FITC-PD-1 (Miltenyi Bioteh.) antibodies as per the manufacturer recommended concentration and incubated in ice for given period of time. Post incubation, the cells were washed, suspended in cell staining buffer before data was acquired using FACS-Verse flow cytometer. The results were analyzed with FlowJo software (v X.0.7). The experiments were repeated thrice prior data analysis.

[2] = test system: EAC solid tumor; test: EAC solid tumor model in vivo; parameters: species or system female Swiss albino mice; settings: for tumor growth inhibition (TGI): 5 mg/kg body weight, intravenously at alternate days, female Swiss albino mice; for CD8+ T cell population in vivo solid tumors: flow cytometry of tumor tissue post sacrifice
Description: Female Swiss albino mice of age 6 weeks (weight = 20 gm) were selected for the experiments. Animals were housed in animal facility room, Department of Zoology, University of Calcutta at 25 ± 2 °C, relative humidity of nearly 45 ± 5% with alternative 12 hours day/ night cycle with access of food and water. All the experiments were carried out as per guideline of the Committee for the Purpose of Control and Supervision of Experimental Animals (CPCSEA), Government of India (Registration No: 885/GO/Re/S/05/CPCSEA) and approved by the Institutional animal ethical committee (IAEC), University of Calcutta.
Ehrlich ascites carcinoma (EAC) cells were maintained in the ascetic form in female Swiss albino mice by intraperitoneal transplantation every 10th day on each mice. The ascetic fluid was drawn on 7th day on implantation according to previously described protocol. Isolated cells were diluted in sterile PBS. 2 × 10^6 cells were then implanted on thigh muscle of all the animals selected for experiment.
Female Swiss albino mice were divided into four groups (n = 6 each group). Post inoculation of the cells in thigh muscle on day 0 mice in their respective group was allowed to treat for 5 days on every alternate day at treatment of 5 mg/ kg body weight described below. All the mice were sacrificed on day 10.
Tumor tissues post sacrifice were digested in collagenase IV medium for 2 hours. The tissues were passed through wire mesh and single-cell strainer. Then the cells were washed in PBS, and immunophenotyping was performed, and cells were stained against APC-CD8 for finding infiltrated CD8 T cell populations by flow cytometry analysis.

[3] = biological target: IDO1 (Homo sapiens, UniProt P14902); test: Cellular IDO1 activity assay in IFN-γ induced MDA-MB-231 cells; assay type: cell-based; parameters: induce the expression of the native IDO1 enzyme from its mRNA in the MDA-MB-231 cells; endogenous in cells; host or cells: MDA-MB-231 cells induced with human IFN-γ (50 ng/mL); settings: IDO1 expression induced by human IFN-γ (50 ng/mL); mean of three
Sequence of IDO1 (P14902 whole entry): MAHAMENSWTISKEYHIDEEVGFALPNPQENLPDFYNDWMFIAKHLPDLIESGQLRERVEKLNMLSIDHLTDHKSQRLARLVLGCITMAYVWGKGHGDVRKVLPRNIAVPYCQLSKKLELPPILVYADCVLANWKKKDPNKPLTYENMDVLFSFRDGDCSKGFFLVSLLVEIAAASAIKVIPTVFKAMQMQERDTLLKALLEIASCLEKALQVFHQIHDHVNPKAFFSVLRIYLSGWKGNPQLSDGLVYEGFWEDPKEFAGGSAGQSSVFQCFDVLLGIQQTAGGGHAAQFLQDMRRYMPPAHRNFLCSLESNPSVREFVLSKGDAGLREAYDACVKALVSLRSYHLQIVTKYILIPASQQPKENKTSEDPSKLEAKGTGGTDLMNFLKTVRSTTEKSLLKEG
Description: The cellular enzyme activity assay was performed according to the reported procedure with minor modifications[19],[27]–[30],[33],[54]. Briefly, MDA-MB-231 breast cancer cells were selected for this assay because of the presence of IDO1 mRNA in this cell line. First, cells were grown in DMEM/F12 complete media overnight. Then different concentration of human interferon-gamma (IFN-γ) (from 5–1000 ng/mL) was added to it and incubated for 48 hours. This treatment is reported to allow over-expression of IDO1 enzyme in MDA-MB-231 cells. […] Sterile cell-culture grade PBS was used to wash the cells by centrifugation technique. Then, the pellet was lysed in 10 mM HEPES buffer by passing through a sterile syringe. The lysate was used for standard IDO1 assay as mentioned earlier. The relative amount of N-formylkynurenine generated in the presence of the different concentration of IFN-γ was used to optimize the required concentration of IFN-γ for the IDO1 inhibition assay. […] Cells stimulated with IFN-γ alone were used as negative control, while cells stimulated with L-Trp without compound served as positive control. The cells were washed with sterile cell culture grade PBS and lysed in 10 mM HEPES buffer by sterile syringe. The lysate was used for standard IDO1 assay, as mentioned earlier, and the extent of IDO1 enzyme inhibition was determined for the selected compounds.

Row | SMILES | PD-1 expression on CD8+ T cells in tumor micro-environment [1] | regulation of CD8+ T cells in tumor micro-environment [1] | regulation of effector memory CD8+ T cells in tumor micro-environment [1] | tumor growth inhibition (TGI) [2] | CD8+ T cell population in vivo solid tumors [2] | EC50 [3] [nM]
1 | NS(=O)(=O)NCCNC(=O)c1n[nH]nc1-c1ccc(F)c(F)c1 [Compound 4k] | Down-regulation | Up-regulation | Up-regulation | 79–96% | induces CD8+ T cell population | 77 ± 5
2 | NC(=O)c1n[nH]nc1-c1ccc(F)c(F)c1 [Compound 3i] | Down-regulation | Up-regulation | Up-regulation | 79–96% and 96% | induces CD8+ T cell population | 74 ± 17
3 | CCOC(=O)c1n[nH]nc1-c1ccc(F)c(F)c1 [Compound 2i] | Down-regulation | Up-regulation | Up-regulation | – | – | 162 ± 15
4 | O=C(N/C(Cc1ccc(O)cc1)=N\O)c1n[nH]nc1-c1ccc(F)c(F)c1 [Compound 4i] | Down-regulation | Up-regulation | Up-regulation | 79–96% | induces CD8+ T cell population | 88 ± 10
